Broadly, the Ki is the dissociation constant of the complex between target and ligand, obtained from inhibition or displacement.

This assay addresses T1, H3R membranes (H3R8-expressing HEK293 cell line) (Homo sapiens, UniProt Q9Y5N1).
T1 construct: expressed in transfected cells
In words: [35S]GTPγS binding assay, H3R membranes in the presence of agonist. In kind it is biochemical. Conditions: inhibition of [35S]GTPγS binding to H3R membranes in presence of agonist R(-)alpha methylhistamine; room temperature, pH 7.4. How it is done: Membranes isolated as described in (Preparation of Histamine Receptor Subtype Membranes) were used in a [^35S]GTPχS functional assay. Binding of [^35S]GTPχS to membranes indicates agonist activity. Compounds of the invention of Formula I were tested for their ability to inhibit binding in the presence of agonists. Alternately, the same transfected cell lines were used for a cAMP assay wherein H3R agonists inhibited forskolin-activated synthesis of cAMP. Compounds of Formula I were tested for their ability to permit forskolin-stimulated cAMP synthesis in the presence of agonist. cDNA for the human histamine 3 receptor was cloned and expressed as described in (A. Preparation H1R membranes), above. Transfected cells were selected using G418 ([…]), grown, and tested for histamine binding by the SPA described above. For total binding, cells were assayed in a SPA reaction described above containing 50 mM Tris-HCL (assay buffer), pH 7.6, 1 mg wheat germ agglutinin SPA beads (Amersham Pharmacia Biotech, #RPNQ0001), and 1 nM (^3H)-n-alpha-methylhistamine (NEN, NET1027) (total volume per well=200 μl). Thioperimide was added to determine non-specific binding. Several clones were selected as positive for binding, and a single clone (H3R8) was used to prepare membranes for binding studies described above. […] Plates were counted in Wallac Trilux 1450 Microbeta scintillation counter for 1 minute. […]
(Binding of GTPγS marks nucleotide exchange on a G protein.)

T1 sequence (Q9Y5N1 whole entry): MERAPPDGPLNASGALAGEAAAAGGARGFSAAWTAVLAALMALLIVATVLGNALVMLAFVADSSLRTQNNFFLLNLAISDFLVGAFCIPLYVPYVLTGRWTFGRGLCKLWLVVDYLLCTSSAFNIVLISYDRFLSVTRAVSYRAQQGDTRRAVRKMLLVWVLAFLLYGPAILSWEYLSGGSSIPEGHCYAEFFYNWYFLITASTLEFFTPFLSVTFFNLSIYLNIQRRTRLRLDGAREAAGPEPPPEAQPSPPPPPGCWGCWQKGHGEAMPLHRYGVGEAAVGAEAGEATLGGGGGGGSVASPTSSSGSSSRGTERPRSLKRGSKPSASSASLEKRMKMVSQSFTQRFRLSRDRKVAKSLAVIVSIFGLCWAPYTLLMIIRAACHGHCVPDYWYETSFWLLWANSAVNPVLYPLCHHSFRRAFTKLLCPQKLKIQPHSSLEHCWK

For `CN1CCC[C@H]1CN1CCc2cc(OCCCN3CCCCC3)ccc21` [Example 60, (S)-1-(1-Methyl-pyrrolidin-2-ylmethyl)-5-(3-piperidin-1-yl-propoxy)-2,3-dihydro-1H-indole], the Ki was 0.5 nM.

On to `O=C(c1cccs1)N1CCCc2ccc(OCCCN3CCCCC3)cc21` [Example 6, [7-(3-Piperidin-1-yl-propoxy)-3,4-dihydro-2H-quinolin-1-yl]-thiophen-2-yl-methanone], for which the Ki stood at 12.6 nM.
